IC50 data for 4 molecules are collected here from US20250206761A1, “HALOINDOLE MACROCYCLIC COMPOUNDS FOR THE TREATMENT OF CANCER” (Hoffmann-La Roche Inc., priority 2022, published 2025).

The subject of one experiment is SW620 (ATCC-CCL-227). The experiment can be described thus: Cell viability assay, G12V (SW620). Format: cell-based, human. The following applies: KRAS cell viability, SW620, 72 hrs, Cell Counting Kit-8. The protocol:
(§1) The purpose of this cellular assay was to determine the effects of test compounds on the proliferation of human cancer cell lines NCI-H358 (ATCC-CRL5807) cells, AGS (ATCC-CRL-1739) cells, SW620 (ATCC-CCL-227) over a 3-day treatment period by quantifying the amount of NADPH present at endpoint using Cell Counting Kit-8.
(§2) Cells were seeded at 5,000 cells/well (NCI-H358), 2,000 cells/well (AGS) 2,000 cells/well (SW620) in 96-well assay plates (Corning-3699) and incubated overnight. On the day of the assay, diluted compounds were then added in a final concentration of 0.5% DMSO. After 72 hrs incubation, a tenth of the volume of cell counting kit 8 (Dnjindo-CK04) was added into each well. Read the signal (OD450 minus OD650) using EnVision after 2 hrs incubation. IC50 was determined by fitting a 4-parameter sigmoidal concentration response model.
In general terms: Formazan colour is commonly taken as a measure of viable cells.

The target of experiment [1] is KRAS G12D binding to BRAF (Homo sapiens (Human), UniProt P01116+P62937, G12D). The experiment can be described thus: KRAS-BRAF with CYPA (500 nM) interaction assay (TR-FRET), G12D. In kind it is biochemical. The protocol:
(§3) In this example, TR-FRET was also used to measure the compound or compound-CYPA dependent disruption of the KRAS G12C-BRAF complex. This protocol was also used to measure disruption of KRAS G12D or KRAS G12V binding to BRAF by a compound of the invention, respectively. In assay buffer containing 25 mM HEPES PH=7.4 (4-(2-hydroxyethyl)-1-piperazineethanesulfonic acid, Thermo, 15630080), 0.002% Tween20, 0.1% BSA, 100 mM NaCl, 5 mM MgCl2, 10 μM GMPPNP (Guanosine 5′-[β,γ-imido]triphosphate trisodium salt hydrate, Sigma, G0635), […] 384-well assay plate at final concentrations of 50 nM, 6.25 nM and 1 nM, respectively. Compound was present in plate wells as a 16-point 3-fold dilution series starting at a final concentration of 10 μM and incubated for 3 hours. A mixture of MAb Anti-6His-XL665 (Cisbio, 61HISXLB) and Mab anti-GST-TB cryptate (Cisbio, 61GSTTLB) was then added at a final concentration of 6.67 nM and 0.21 nM, respectively, and the plate was incubated for an additional 1.5 hours. TR-FRET signal was read on a PHERstar FSX microplate reader (Ex320 nm, Em 665/615 nm). Compounds that facilitate disruption of the KRAS-BRAF complex were identified as those eliciting a decrease in the TR-FRET ratio relative to DMSO control wells.
On the technique in general: Time-resolved FRET reads energy transfer from a long-lived donor to a nearby acceptor.

For the next experiment, the target named is KRAS G12C-BRAF complex (Homo sapiens (Human), UniProt P01116+P62937, G12C). The experiment can be described thus: KRAS-BRAF with CYPA (500 nM) interaction assay (TR-FRET), G12C. In kind it is biochemical. The protocol:
as §3

For experiment [2], the target named is KRAS G12V binding to BRAF (Homo sapiens (Human), UniProt P01116+P62937, G12V). The experiment can be described thus: KRAS-BRAF with CYPA (500 nM) interaction assay (TR-FRET), G12V. In kind it is biochemical. The protocol:
In this example, TR-FRET was also used to measure the compound or compound-CYPA dependent disruption of the KRAS G12C-BRAF complex. This protocol was also used to measure disruption of KRAS G12D or KRAS G12V binding to BRAF by a compound of the invention, respectively. In assay buffer containing 25 mM HEPES PH=7.4 (4-(2-hydroxyethyl)-1-piperazineethanesulfonic acid, Thermo, 15630080), 0.002% Tween20, 0.1% BSA, 100 mM NaCl, 5 mM MgCl2, 10 μM GMPPNP (Guanosine 5′-[β,γ-imido]triphosphate trisodium salt hydrate, Sigma, G0635), […], GMPPNP loaded 6His-KRAS proteins, and […], 6.25 nM and 1 nM, respectively. Compound was present in plate wells as a 16-point 3-fold dilution series starting at a final concentration of 10 μM and incubated for 3 hours. A mixture of MAb Anti-6His-XL665 (Cisbio, 61HISXLB) and Mab anti-GST-TB cryptate (Cisbio, 61GSTTLB) was then added at a final concentration of 6.67 nM and 0.21 nM, respectively, and the plate was incubated for an additional 1.5 hours. TR-FRET signal was read on a PHERstar FSX microplate reader (Ex320 nm, Em 665/615 nm). Compounds that facilitate disruption of the KRAS-BRAF complex were identified as those eliciting a decrease in the TR-FRET ratio relative to DMSO control wells.

Experiment [3] relates to AGS (ATCC-CRL-1739) cells. Description: Cell viability assay, G12D (AGS). Format: cell-based, human. The settings on record: KRAS cell viability, 72 hrs, Cell Counting Kit-8. The protocol:
as §1, §2

Experiment [4] relates to phosphorylation of ERK, KRAS G12V in SW620. Description: pERK inhibition assay, KRAS G12V. Format: cell-based, human. The settings on record: Homo sapiens, SW-620, SW620, 4 hours. The protocol:
(§4) This assay is to measure the ability of test compounds in inhibiting the phosphorylation of ERK, the downstream signaling of KRAS G12C in NCJ-H358 cells, KRAS G12D in AGS cells, and KRAS G12V in SW620. NCJ-H358 (ATCC-CRL5807) cells, AGS (ATCC-CRL-1739) cells, SW620 (ATCC-CCL-227) cells were all grown and maintained using RPMI-1640 medium (Thermo Fisher Scientific) with 10% fetal bovine serum and 1% penicillin/streptomycin. On the day prior to compound addition, cells were plated in tissue culture-treated 96 well plates (Corning-3699) at a density of 30,000 cell/well, 20,000 cell/well, 30,000 cell/well for NCJ-H358, AGS and SW620 respectively, and allowed for attachment overnight. Diluted compounds were then added in a final concentration of 0.5% DMSO. After 4 hours of incubation, the medium was removed, 100 μL of 4% formaldehyde was added, and the assay plates were incubated at room temperature for 20 minutes. The plates were then washed once with phosphate buffered saline (PBS), and permeabilized with 100 μL of chilled methanol for 10 minutes. Non-specific antibody binding to the plates was blocked using 50 μL 1×BSA blocking buffer (Thermo-37520, 10-fold dilution by Phosphate-Buffered Saline Tween (PBST) for at least 1 hour at room temperature.
(§5) The amount of phosphor-ERK was determined using an antibody specific for phosphorylated form of ERK. Primary antibody (pERK, CST-4370, Cell Signaling Technology) was diluted 1:300 in blocking buffer, with 50 μL aliquoted to each well, and incubated overnight at 4′° C. Cells was washed five times for 5 minutes with PBST. Secondary antibody ([…] anti-rabbit IgG, CST-7074, Cell Signaling Technology) was diluted 1:1000 in blocking buffer, and 50 μL was added to each well and incubated 1-2 hrs at room temperature. Cells was washed 5 times for 5 minutes with PBST, 100 μL TMB ELISA substrate (abcam-ab171523) were added and gently shake for 20 minutes. 50 μL stop solution (abcam-ab171529) were added, and then read the signal (OD450) by EnVision.
(§6) IC50 was determined by fitting a 4-parameter sigmoidal concentration response model.

Experiment [5] has as its system NCI-H358 (ATCC-CRL5807) cells. The experiment can be described thus: Cell viability assay, G12C (NCI-H358). In kind it is cell-based, human. The following applies: Homo sapiens; KRAS cell viability, NCI-H358, 72 hrs, Cell Counting Kit-8. The procedure: as §1, §2
In experiment [6] the test system is phosphorylation of ERK, KRAS G12C in NCJ-H358 cells. Description: pERK inhibition assay, KRAS G12C. In kind it is cell-based, human. The settings on record: Homo sapiens, 4 hours. The protocol:
as §4, §5, §6

Chain of KRAS G12D binding to BRAF (P01116-2 other isoform, or with tags, fused parts or gaps G12D): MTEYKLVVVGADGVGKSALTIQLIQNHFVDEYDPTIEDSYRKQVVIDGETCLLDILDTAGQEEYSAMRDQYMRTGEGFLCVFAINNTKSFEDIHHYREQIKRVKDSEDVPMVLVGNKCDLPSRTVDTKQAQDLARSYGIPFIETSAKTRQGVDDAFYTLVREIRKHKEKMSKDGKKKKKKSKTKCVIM
Chain of KRAS G12D binding to BRAF (P62937 whole entry): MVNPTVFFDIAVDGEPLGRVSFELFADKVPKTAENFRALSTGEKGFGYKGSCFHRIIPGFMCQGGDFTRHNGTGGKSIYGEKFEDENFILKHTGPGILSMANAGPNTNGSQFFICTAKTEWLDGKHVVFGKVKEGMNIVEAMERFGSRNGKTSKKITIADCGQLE
Chain of KRAS G12V binding to BRAF (P01116-2 other isoform, or with tags, fused parts or gaps G12V): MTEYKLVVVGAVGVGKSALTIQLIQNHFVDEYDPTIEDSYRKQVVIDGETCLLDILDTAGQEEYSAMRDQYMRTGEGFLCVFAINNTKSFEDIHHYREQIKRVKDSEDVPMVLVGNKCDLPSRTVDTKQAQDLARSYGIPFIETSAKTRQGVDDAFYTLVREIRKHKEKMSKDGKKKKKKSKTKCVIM
Chain of KRAS G12V binding to BRAF (P62937 whole entry): as the sequence (P62937 whole entry) above
Chain of KRAS G12C-BRAF complex (P01116-2 other isoform, or with tags, fused parts or gaps G12C): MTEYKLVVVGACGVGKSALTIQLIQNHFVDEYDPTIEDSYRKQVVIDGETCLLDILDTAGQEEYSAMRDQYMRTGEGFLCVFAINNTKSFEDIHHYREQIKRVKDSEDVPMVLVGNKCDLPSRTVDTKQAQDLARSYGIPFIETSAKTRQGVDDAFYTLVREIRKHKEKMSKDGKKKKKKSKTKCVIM
Chain of KRAS G12C-BRAF complex (P62937 whole entry): as the sequence (P62937 whole entry) above

Take `CO[C@@H](C)c1ncc(N2CCN(C)CC2)cc1-c1c2c3cc(c(F)cc3n1CC(F)(F)F)-c1csc(n1)C[C@H](NC(=O)[C@H](C(C)C)N1CCC3(CN(C(=O)[C@H](F)Cl)C3)C1=O)C(=O)N1CCC[C@H](N1)C(=O)OCC(C)(C)C2` (atropisomer, axis not shown) [Example 25, (2S)-2-[2-[(2R)-2-chloro-2-fluoro-acetyl]-5-oxo-2,6-diazaspiro[3.4]octan-6-yl]-N-[(7S,13S)-24-fluoro-20-[2-[(1S)-1-methoxyethyl]-5-(4-methylpiperazin-1-yl)-3-pyridyl]-17,17-dimethyl-8,14-dioxo-21-(2,2,2-trifluoroethyl)-15-oxa-4-thia-9,21,27,28-tetrazapentacyclo[17.5.2.1^2,5.1^9,13.0^22,26]octacosa-1(25),2,5(28),19,22(26),23-hexaen-7-yl]-3-methyl-butanamide]: the IC50 – broadly, the concentration that inhibits the measured activity by half – was found to be 89 nM with SW620 (ATCC-CCL-227) (Homo sapiens, SW-620); 6060 nM in experiment [1]; 98 nM against KRAS G12C-BRAF complex; 3540 nM in experiment [2]; 1650 nM in experiment [3] (Homo sapiens).

For the molecule `CO[C@@H](C)c1ncc(N2CCN(CC(F)(F)F)CC2)cc1-c1c2c3cc(c(F)cc3n1CC(F)(F)F)-c1csc(n1)C[C@H](NC(=O)[C@H](C(C)C)N1CC[C@@]3(CCN(C(=O)[C@H](F)Cl)C3)C1=O)C(=O)N1CCC[C@H](N1)C(=O)OCC(C)(C)C2` (atropisomer, axis not shown) [Example 43, (2S)-2-[(5R)-7-[(2R)-2-chloro-2-fluoro-acetyl]-1-oxo-2,7-diazaspiro[4.4]nonan-2-yl]-N-[(7S,13S)-24-fluoro-20-[2-[(1S)-1-methoxyethyl]-5-[4-(2,2,2-trifluoroethyl)piperazin-1-yl]-3-pyridyl]-17,17-dimethyl-8,14-dioxo-21-(2,2,2-trifluoroethyl)-15-oxa-4-thia-9,21,27,28-tetrazapentacyclo[17.5.2.1^2,5.1^9,13.0^22,26]octacosa-1(25),2,5(28),19,22(26),23-hexaen-7-yl]-3-methyl-butanamide], the concentration for half-maximal inhibition (IC50) in experiment [4] was 44 nM; in the experiment with SW620 (ATCC-CCL-227) (Homo sapiens, SW-620), 171 nM; in experiment [5] it was less than 1 nM; in experiment [1], 2200 nM; in experiment [6], 6 nM; on KRAS G12C-BRAF complex it was 22 nM. The IC50 in experiment [2] is 1690 nM; in experiment [3] (Homo sapiens), 67 nM.

Turning to `CCn1c(-c2cc(N3CCN(C)CC3)cnc2[C@H](C)OC)c2c3cc(c(F)cc31)-c1csc(n1)C[C@H](NC(=O)[C@H](C(C)C)N(C)C(=O)C1(F)CCN(C(=O)[C@H](F)Cl)CC1)C(=O)N1CCC[C@H](N1)C(=O)OCC(C)(C)C2` (atropisomer, axis not shown; (M)) [Example 34, 1-[(2R)-2-chloro-2-fluoro-acetyl]-N-[(1S)-1-[[(7S,13S)-21-ethyl-24-fluoro-(20M)-20-[2-[(1S)-1-methoxyethyl]-5-(4-methylpiperazin-1-yl)-3-pyridyl]-17,17-dimethyl-8,14-dioxo-15-oxa-4-thia-9,21,27,28-tetrazapentacyclo[17.5.2.1^2,5.1^9,13.0^22,26]octacosa-1(25),2,5(28),19,22(26),23-hexaen-7-yl]carbamoyl]-2-methyl-propyl]-4-fluoro-N-methyl-piperidine-4-carboxamide], the 50% inhibitory concentration (IC50) in experiment [4] is 12 nM; with SW620 (ATCC-CCL-227) (Homo sapiens, SW-620) it was 40 nM; in experiment [5], less than 1 nM; in experiment [1], 909 nM; in experiment [6] it was 2 nM; against KRAS G12C-BRAF complex, 47 nM. Moreover, the IC50 in experiment [2] came out at 724 nM; in experiment [3] (Homo sapiens), 43 nM.

Take `CCn1c(-c2cc(N3CCN(C)CC3)cnc2[C@H](C)OC)c2c3cc(c(F)cc31)-c1csc(n1)C[C@H](NC(=O)[C@H](C(C)C)N1CCC[C@]3(CCN(C(=O)[C@@H](F)Cl)C3)C1=O)C(=O)N1CCC[C@H](N1)C(=O)OCC(C)(C)C2` [Example 23, (2S)-2-[(5S)-2-[(2S)-2-chloro-2-fluoro-acetyl]-6-oxo-2,7-diazaspiro[4.5]decan-7-yl]-N-[(7S,13S)-21-ethyl-24-fluoro-(20M)-20-[2-[(1S)-1-methoxyethyl]-5-(4-methylpiperazin-1-yl)-3-pyridyl]-17,17-dimethyl-8,14-dioxo-15-oxa-4-thia-9,21,27,28-tetrazapentacyclo[17.5.2.1^2,5.1^9,13.0^22,26]octacosa-1(25),2,5(28),19,22(26),23-hexaen-7-yl]-3-methyl-butanamide]: the 50% inhibitory concentration (IC50) in the experiment with SW620 (ATCC-CCL-227) was 90 nM; in experiment [1], 2080 nM; on KRAS G12C-BRAF complex, 64 nM; in experiment [2] it was 5390 nM; in experiment [3], 322 nM.
